Laboratory results as given in US12018021B2 (UCB Biopharma SRL, priority 2018, dated 2024).
pIC50: −log10 of the molar value.

target: IgE-Tb / FcεRIα-Y131A-AF488 (Homo sapiens, UniProt P01854); experiment: IgE-Tb / FcεRIα-Y131A-AF488 FRET assay (protocol for examples 1 to 233); assay type: binding; conditions: examples 1 to 233: 5 nM IgE-Tb, 25 nM FcεRIα-Y131A-AF488, incubated 2 hours at room temperature; read-out: Y131A FRET IC50 range
How it was run: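 TR-FRET displacement with 5 nM IgE-Tb and 25 nM FcεRIα-Y131A-AF488 (final), 10-point 3-fold compound dilutions from typically 10 μM top, 2% DMSO, 2 h at room temperature. Excitation 330 nm, 520/495 nm emission ratio; MIN set with 200 nM unlabelled FcεRIα. IC50 from four-parameter logistic fit of percent inhibition.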

Sequence of IgE-Tb / FcεRIα-Y131A-AF488 (P01854 1-427 limits assumed, stated change not applied): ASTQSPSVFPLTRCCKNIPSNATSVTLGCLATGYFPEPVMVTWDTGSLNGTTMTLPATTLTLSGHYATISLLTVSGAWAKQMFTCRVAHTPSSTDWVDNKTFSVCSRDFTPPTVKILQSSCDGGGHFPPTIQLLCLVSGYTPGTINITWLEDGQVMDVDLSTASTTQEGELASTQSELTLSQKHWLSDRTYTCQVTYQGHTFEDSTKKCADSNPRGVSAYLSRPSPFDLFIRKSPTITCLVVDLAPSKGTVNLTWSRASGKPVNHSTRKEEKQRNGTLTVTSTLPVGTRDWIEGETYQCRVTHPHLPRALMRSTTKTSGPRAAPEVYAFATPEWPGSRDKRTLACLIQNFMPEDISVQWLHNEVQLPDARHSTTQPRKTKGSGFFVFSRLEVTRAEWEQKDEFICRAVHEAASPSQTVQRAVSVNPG

Question: How did the pIC50 turn out when `CCN/C(=N\[N+](=O)[O-])N[C@@H]1CCc2sc(NC(=O)C3CC3)c(C(=O)NCC3CC3)c2C1` [Example 146, (5R)-2-(Cyclopropanecarbonylamino)-N-(cyclopropylmethyl)-5-[[(E)-N-ethyl-N′-nitro-carbamimidoyl]amino]-4,5,6,7-tetrahydrobenzothiophene-3-carboxamide] was run?
Answer: 4.30 to 5.00

Question: How did the pIC50 turn out when `Cc1cc(Nc2nncn2C2CCc3sc(NC(=O)C4CC4)c(C(=O)NC4CC(F)(F)C4)c3C2)n(C)n1` (centres unmarked) [Example 185, 2-(cyclopropanecarbonylamino)-N-(3,3-difluorocyclobutyl)-5-[3-[(2,5-dimethylpyrazol-3-yl)amino]-1,2,4-triazol-4-yl]-4,5,6,7-tetrahydrobenzothiophene-3-carboxamide] was run?
Answer: > 6.00

Question: With `CCNc1nncn1[C@H]1CCc2sc(NC(=O)C3CC3)c(C(=O)NCC3CC3)c2C1` [Example 122, (5S)-2-(cyclopropanecarbonylamino)-N-(cyclopropylmethyl)-5-[3-(ethylamino)-1,2,4-triazol-4-yl]-4,5,6,7-tetrahydrobenzothiophene-3-carboxamide] as the molecule, how does the pIC50 read?
Answer: > 6.00

Question: With `CS(=O)(=O)c1cccc(NC(=O)C2CCc3sc(NC(=O)C4CC4)c(S(=O)(=O)NCC4CC4)c3C2)c1` (centres unmarked) [Example 34, 2-(Cyclopropanecarbonylamino)-3-(cyclopropylmethylsulfamoyl)-N-(3-methylsulfonylphenyl)-4,5,6,7-tetrahydrobenzothiophene-5-carboxamide] as the molecule, how does the pIC50 read?
Answer: > 6.00

Question: `Cc1ccc(NC(=NC#N)NC2CCc3sc(NC(=O)C4CC4)c(S(=O)(=O)NCC4CC4)c3C2)cc1` (centres unmarked) [Example 30, N-[5-[[N′-Cyano-N-(p-tolyl)carbamimidoyl]amino]-3-(cyclopropylmethylsulfamoyl)-4,5,6,7-tetrahydrobenzothiophen-2-yl]cyclopropanecarboxamide] was tested. Which pIC50 did it give?
Answer: > 6.00

Question: With `CCCNS(=O)(=O)c1c(NC(=O)C2CC2)sc2c1CC(NC(=O)Nc1ccc(OC)cc1)CC2` (centres unmarked) [Example 26, N-[5-[(4-Methoxyphenyl)carbamoylamino]-3-(propylsulfamoyl)-4,5,6,7-tetrahydrobenzothiophen-2-yl]cyclopropanecarboxamide] as the molecule, how does the pIC50 read?
Answer: > 6.00

Question: How did the pIC50 turn out when `CC(C)(C)OC(=O)Nc1cnnn1[C@H]1CCc2sc(NC(=O)C3CC3)c(C(=O)NCC3CC3)c2C1` (stereo in doubt) [Example 140, tert-Butyl N-[3-[2-(cyclopropanecarbonylamino)-3-(cyclopropylmethylcarbamoyl)-4,5,6,7-tetrahydrobenzothiophen-5-yl]triazol-4-yl]carbamate] was run?
Answer: > 6.00

Question: How did the pIC50 turn out when `C[S+]([O-])NC1CCc2sc(NC(=O)C3CC3)c(C(=O)NCC3CC3)c2C1` (mixture of isomers) [Example 199, 2-(Cyclopropanecarbonylamino)-N-(cyclopropylmethyl)-5-(methanesulfinamido)-4,5,6,7-tetrahydrobenzothiophene-3-carboxamide] was run?
Answer: 5.00 to 6.00

Question: How did the pIC50 turn out when `O=C(NCC1CC1)c1c(NC(=O)C2CC2)sc2c1CC(C(=O)NC1Cc3ccccc3C1)CC2` (centres unmarked) [Example 47, 2-(Cyclopropanecarbonylamino)-N3-(cyclopropylmethyl)-N5-indan-2-yl-4,5,6,7-tetrahydrobenzothiophene-3,5-dicarboxamide] was run?
Answer: > 6.00

Question: `CC(C)c1cc(Nc2nncn2[C@H]2CCc3sc(NC(=O)C4CC4)c(C(=O)NCC4CC4)c3C2)n(C)n1` [Example 220, (5S)-2-(cyclopropanecarbonylamino)-N-(cyclopropylmethyl)-5-[3-[(5-isopropyl-2-methyl-pyrazol-3-yl)amino]-1,2,4-triazol-4-yl]-4,5,6,7-tetrahydrobenzothiophene-3-carboxamide] was tested. Which pIC50 did it give?
Answer: > 6.00

Question: How did the pIC50 turn out when `Cc1cc(Nc2nncn2[C@H]2CCc3sc(NC(=O)C4CC4)c(C(=O)NCC(C)C)c3C2)n(C)n1` [Example 108, (5S)-2-(Cyclopropanecarbonylamino)-5-[3-[(2,5-dimethylpyrazol-3-yl)amino]-1,2,4-triazol-4-yl]-N-isobutyl-4,5,6,7-tetrahydrobenzothiophene-3-carboxamide] was run?
Answer: > 6.00

Question: `CC(=O)Nc1nccn1[C@H]1CCc2sc(NC(=O)C3CC3)c(C(=O)NCC3CC3)c2C1` [Example 139, (5S)-5-(2-Acetamidoimidazol-1-yl)-2-(cyclopropanecarbonylamino)-N-(cyclopropylmethyl)-4,5,6,7-tetrahydrobenzothiophene-3-carboxamide] was tested. Which pIC50 did it give?
Answer: > 6.00

Question: How did the pIC50 turn out when `Cc1noc(C2CCc3sc(NC(=O)C4CC4)c(C(=O)NCC4CC4)c3C2)n1` (centres unmarked) [Example 71, 2-(Cyclopropanecarbonylamino)-N-(cyclopropylmethyl)-5-(3-methyl-1,2,4-oxadiazol-5-yl)-4,5,6,7-tetrahydrobenzothiophene-3-carboxamide] was run?
Answer: 5.00 to 6.00

Question: With `Cc1cc(Nc2nncn2[C@@H]2CCc3sc(NC(=O)C4CC4)c(C(=O)NCC4CC4)c3C2)n(C)n1` [Example 162, (5R)-2-(Cyclopropanecarbonylamino)-N-(cyclopropylmethyl)-5-[3-[(2,5-dimethylpyrazol-3-yl)amino]-1,2,4-triazol-4-yl]-4,5,6,7-tetrahydrobenzothiophene-3-carboxamide] as the molecule, how does the pIC50 read?
Answer: > 6.00

Question: `Cc1ccc(N2CC3(CCc4sc(NC(=O)C5CC5)c(C(=O)NCC5CC5)c4C3)OC2=O)cc1` (centres unmarked) [Example 61, 2-(Cyclopropanecarbonylamino)-N-(cyclopropylmethyl)-2′-oxo-3′-(p-tolyl)spiro[6,7-dihydro-4H-benzothiophene-5,5′-oxazolidine]-3-carboxamide] was tested. Which pIC50 did it give?
Answer: > 6.00

Question: How did the pIC50 turn out when `CNC(=O)c1c(NC(=O)C2CC2)sc2c1CCCO2` [Example 2, 6-(Cyclopropanecarbonylamino)-N-methyl-3,4-dihydro-2H-thieno[2,3-b]pyran-5-carboxamide] was run?
Answer: 4.30 to 5.00

Question: How did the pIC50 turn out when `CC(C)(C)OC(=O)NCCN1CCc2sc(NC(=O)C3CC3)c(C(=O)NCC3CC3)c2C1` [Example 10, Tert-butyl N-[2-[2-(cyclopropanecarbonylamino)-3-(cyclopropylmethylcarbamoyl)-6,7-dihydro-4H-thieno[3,2-c]pyridin-5-yl]ethyl]carbamate] was run?
Answer: 4.30 to 5.00

Question: How did the pIC50 turn out when `CC1CC1C(=O)Nc1sc2c(c1C(=O)NCC1CC1)CCCC2` (single isomer, unassigned) [Example 90, N-(cyclopropylmethyl)-2-[(2-methylcyclopropanecarbonyl)amino]-4,5,6,7-tetrahydrobenzothiophene-3-carboxamide] was run?
Answer: 5.00 to 6.00

Question: `Cc1ccc(NC(=N[N+](=O)[O-])NC2CCc3sc(NC(=O)C4CC4)c(C(=O)NCC4CC4)c3C2)cc1` (centres unmarked) [Example 126, 2-(cyclopropanecarbonylamino)-N-(cyclopropylmethyl)-5-[[N′-nitro-N-(p-tolyl)carbamimidoyl]amino]-4,5,6,7-tetrahydrobenzothiophene-3-carboxamide] was tested. Which pIC50 did it give?
Answer: > 6.00

Question: `Cc1nnc(C2CCc3sc(NC(=O)C4CC4)c(C(=O)NCC4CC4)c3C2)o1` (centres unmarked) [Example 72, 2-(Cyclopropanecarbonylamino)-N-(cyclopropylmethyl)-5-(5-methyl-1,3,4-oxadiazol-2-yl)-4,5,6,7-tetrahydrobenzothiophene-3-carboxamide] was tested. Which pIC50 did it give?
Answer: 5.00 to 6.00

Question: How did the pIC50 turn out when `CCNC(=C[N+](=O)[O-])NC1CCc2sc(NC(=O)C3CC3)c(C(=O)NCC3CC3)c2C1` (centres unmarked) [Example 151, 2-(cyclopropanecarbonylamino)-N-(cyclopropylmethyl)-5-[[1-(ethylamino)-2-nitro-vinyl]amino]-4,5,6,7-tetrahydrobenzothiophene-3-carboxamide] was run?
Answer: 5.00 to 6.00

Question: With `O=C(NCC1CC1)c1c(NC(=O)C2CC2)sc2c1CC(n1ccnc1Nc1ccccc1)CC2` (centres unmarked) [Example 155, 5-(2-Anilinoimidazol-1-yl)-2-(cyclopropanecarbonylamino)-N-(cyclopropylmethyl)-4,5,6,7-tetrahydrobenzothiophene-3-carboxamide] as the molecule, how does the pIC50 read?
Answer: > 6.00

Question: With `CC(=NC#N)NC1CCc2sc(NC(=O)C3CC3)c(C(=O)NCC3CC3)c2C1` (centres unmarked) [Example 197, 5-[[N-Cyano-C-methyl-carbonimidoyl]amino]-2-(cyclopropanecarbonylamino)-N-(cyclopropylmethyl)-4,5,6,7-tetrahydrobenzothiophene-3-carboxamide] as the molecule, how does the pIC50 read?
Answer: > 6.00

Question: How did the pIC50 turn out when `CC(C)(C)OC(=O)NC1CCCc2c1sc(NC(=O)C1CC1)c2C(=O)NCC1CC1` (centres unmarked) [Example 97, tert-Butyl N-[2-(cyclopropanecarbonylamino)-3-(cyclopropylmethylcarbamoyl)-4,5,6,7-tetrahydrobenzothiophen-7-yl]carbamate] was run?
Answer: 5.00 to 6.00

Question: `Cc1cc(Nc2nncn2C2CCc3sc(NC(=O)C4CC4)c(C(=O)NCC(C)(C)F)c3C2)n(C)n1` (centres unmarked) [Example 200, 2-(cyclopropanecarbonylamino)-5-[3-[(2,5-dimethylpyrazol-3-yl)amino]-1,2,4-triazol-4-yl]-N-(2-fluoro-2-methyl-propyl)-4,5,6,7-tetrahydrobenzothiophene-3-carboxamide] was tested. Which pIC50 did it give?
Answer: > 6.00

Question: How did the pIC50 turn out when `Cc1noc(C)c1Nc1nncn1[C@H]1CCc2sc(NC(=O)C3CC3)c(C(=O)NCC3CC3)c2C1` [Example 148, (5S)-2-(Cyclopropanecarbonylamino)-N-(cyclopropylmethyl)-5-[3-[(3,5-dimethylisoxazol-4-yl)amino]-1,2,4-triazol-4-yl]-4,5,6,7-tetrahydrobenzothiophene-3-carboxamide] was run?
Answer: > 6.00

Question: How did the pIC50 turn out when `O=C(NCC1CC1)c1c(NC(=O)C2CC2)sc2c1CC1(CC2)OCCO1` [Example 86, 2′-(Cyclopropanecarbonylamino)-N-(cyclopropylmethyl)spiro[1,3-dioxolane-2,5′-6,7-dihydro-4H-benzothiophene]-3′-carboxamide] was run?
Answer: > 6.00

Question: With `CC(C)(O)CNS(=O)(=O)c1c(NC(=O)C2CC2)sc2c1CCCC2` [Example 18, N-[3-[(2-Hydroxy-2-methyl-propyl)sulfamoyl]-4,5,6,7-tetrahydrobenzothiophen-2-yl]cyclopropanecarboxamide] as the molecule, how does the pIC50 read?
Answer: 5.00 to 6.00

Question: With `O=C(NCC1CC1)c1c(NC(=O)C2CC2)sc2c1CC(C(=O)N1CCCC1)CC2` (centres unmarked) [Example 73, 2-(Cyclopropanecarbonylamino)-N-(cyclopropylmethyl)-5-(pyrrolidine-1-carbonyl)-4,5,6,7-tetrahydrobenzothiophene-3-carboxamide] as the molecule, how does the pIC50 read?
Answer: 5.00 to 6.00
